From ChEMBL document CHEMBL1201862, “PubChem BioAssay data set” (2004)
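Cultured in 96-well plates, cells were exposed to test compound for 48 hours across five concentrations. GI50: concentration for 50% inhibition of growth.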 The source made the active and inactive calls. Rule as the data show it: active = GI50 up to about 1.1 µM and inactive = higher.

How the values were obtained:
Test in all cases: inhibition of tumour cell growth, NCI panel, 48 h
NCI/ADR-RES = system: NCI/ADR-RES
SK-MEL-2 = system: SK-MEL-2
SF-268 = system: SF-268
DMS-273 = system: DMS-273
SK-OV-3 = system: SK-OV-3
HOP-62 = system: HOP-62
A549 = system: A549
HCT-15 = system: HCT-15
HCC 2998 = system: HCC 2998
M14 = system: M14
ACHN = system: ACHN
DLD-1 = system: DLD-1
SK-MEL-5 = system: SK-MEL-5
CAKI-1 = system: CAKI-1
SR = system: SR
UACC-62 = system: UACC-62
NCI-H23 = system: NCI-H23
OVCAR-4 = system: OVCAR-4
NCI-H460 = system: NCI-H460
HOP-92 = system: HOP-92
NCI-H522 = system: NCI-H522
HT-29 = system: HT-29
UO-31 = system: UO-31
Malme-3M = system: Malme-3M
HOP-18 = system: HOP-18
786-0 = system: 786-0
RPMI-8226 = system: RPMI-8226
KM-20L2 = system: KM-20L2
RXF 393 = system: RXF 393
M19-MEL = system: M19-MEL
IGROV-1 = system: IGROV-1
NCI-H226 = system: NCI-H226
SNB-19 = system: SNB-19
OVCAR-3 = system: OVCAR-3
COLO 205 = system: COLO 205
CCRF-CEM = system: CCRF-CEM
SF-295 = system: SF-295
OVCAR-8 = system: OVCAR-8
MOLT-4 = system: MOLT-4
KM12 = system: KM12
A498 = system: A498
TK-10 = system: TK-10
UACC-257 = system: UACC-257
SW-620 = system: SW-620
SF-539 = system: SF-539
LXFL 529 = system: LXFL 529
HCT-116 = system: HCT-116
XF498 = system: XF498
MCF7 = system: MCF7
SNB-78 = system: SNB-78
EKVX = system: EKVX
HL-60 = system: HL-60
OVCAR-5 = system: OVCAR-5
SK-MEL-28 = system: SK-MEL-28
DMS-114 = system: DMS-114
U-251 = system: U-251
K562 = system: K562
SNB-75 = system: SNB-75
SN12C = system: SN12C
LOX IMVI = system: LOX IMVI

## Cn1sc2ccccc2c1=S
NCI/ADR-RES
  GI50: 3.21 µM (inactive)
SK-MEL-2
  GI50: 20 µM (inactive)
SF-268
  GI50: 3.5 µM (inactive)
DMS-273
  GI50: 5.64 µM (inactive)
SK-OV-3
  GI50: 36.1 µM (inactive)
HOP-62
  GI50: 16.5 µM (inactive)
A549
  GI50: 13.9 µM (inactive)
HCT-15
  GI50: 5.5 µM
HCC 2998
  GI50: 28.2 µM (inactive)
M14
  GI50: 10.4 µM (inactive)
ACHN
  GI50: 13.8 µM (inactive)
DLD-1
  GI50: 3.07 µM (inactive)
SK-MEL-5
  GI50: 12.4 µM (inactive)
CAKI-1
  GI50: 11.7 µM (inactive)
SR
  GI50: 14 µM (inactive)
UACC-62
  GI50: 5.78 µM (inactive)
NCI-H23
  GI50: 11.7 µM (inactive)
OVCAR-4
  GI50: 8.2 µM (inactive)
NCI-H460
  GI50: 13.8 µM (inactive)
HOP-92
  GI50: 16.6 µM (inactive)
NCI-H522
  GI50: 3.16 µM (inactive)
HT-29
  GI50: 10.7 µM (inactive)
UO-31
  GI50: 15.3 µM (inactive)
Malme-3M
  GI50: 9.82 µM (inactive)
HOP-18
  GI50: 11.2 µM (inactive)
786-0
  GI50: 3.85 µM (inactive)
RPMI-8226
  GI50: 6.73 µM (inactive)
KM-20L2
  GI50: 13.7 µM (inactive)
RXF 393
  GI50: 3.08 µM (inactive)
M19-MEL
  GI50: 4.59 µM (inactive)
IGROV-1
  GI50: 13 µM (inactive)
NCI-H226
  GI50: 23.2 µM (inactive)
SNB-19
  GI50: 12.2 µM (inactive)
OVCAR-3
  GI50: 4.2 µM (inactive)
COLO 205
  GI50: 13.3 µM (inactive)
CCRF-CEM
  GI50: 2.44 µM (inactive)
SF-295
  GI50: 12.6 µM (inactive)
OVCAR-8
  GI50: 9.71 µM (inactive)
MOLT-4
  GI50: 4.04 µM (inactive)
KM12
  GI50: 12 µM (inactive)
A498
  GI50: 48.5 µM (inactive)
TK-10
  GI50: 24.1 µM (inactive)
UACC-257
  GI50: 8.63 µM (inactive)
SW-620
  GI50: 2.28 µM (inactive)
SF-539
  GI50: 5.83 µM (inactive)
LXFL 529
  GI50: 14 µM (inactive)
HCT-116
  GI50: 3.21 µM (inactive)
XF498
  GI50: 11.9 µM (inactive)
MCF7
  GI50: 2.64 µM (inactive)
SNB-78
  GI50: 15 µM (inactive)
EKVX
  GI50: 8.69 µM (inactive)
HL-60
  GI50: 5.47 µM (inactive)
OVCAR-5
  GI50: 20 µM (inactive)
SK-MEL-28
  GI50: 8.11 µM (inactive)
DMS-114
  GI50: 2.58 µM (inactive)
U-251
  GI50: 4.01 µM (inactive)
K562
  GI50: 3.71 µM (inactive)
SNB-75
  GI50: 6.82 µM (inactive)
SN12C
  GI50: 6.75 µM (inactive)
LOX IMVI
  GI50: 1.78 µM (inactive)

## CC1=CC(=O)c2c(C=O)c(O)c(O)c(C(C)C)c2C1=O
SK-MEL-2
  GI50: 23.3 µM (inactive)
SF-268
  GI50: 20.9 µM (inactive)
DMS-273
  GI50: 31 µM (inactive)
SK-OV-3
  GI50: 34.5 µM (inactive)
HOP-62
  GI50: 32.5 µM (inactive)
HCT-15
  GI50: 26.2 µM
HCC 2998
  GI50: 29.3 µM (inactive)
M14
  GI50: 31.3 µM (inactive)
ACHN
  GI50: 16.8 µM (inactive)
DLD-1
  GI50: 23.9 µM (inactive)
SK-MEL-5
  GI50: 0.494 µM (active)
CAKI-1
  GI50: 21.2 µM (inactive)
SR
  GI50: 22.8 µM (inactive)
UACC-62
  GI50: 20.3 µM (inactive)
NCI-H23
  GI50: 28.8 µM (inactive)
OVCAR-4
  GI50: 14.6 µM (inactive)
NCI-H460
  GI50: 28.8 µM (inactive)
HOP-92
  GI50: 20.9 µM (inactive)
NCI-H522
  GI50: 12.4 µM (inactive)
UO-31
  GI50: 22 µM (inactive)
Malme-3M
  GI50: 22.9 µM (inactive)
HOP-18
  GI50: 25.9 µM (inactive)
786-0
  GI50: 19.8 µM (inactive)
RPMI-8226
  GI50: 19.8 µM (inactive)
KM-20L2
  GI50: 29.1 µM (inactive)
RXF 393
  GI50: 14 µM (inactive)
M19-MEL
  GI50: 37.9 µM (inactive)
IGROV-1
  GI50: 22.5 µM (inactive)
NCI-H226
  GI50: 10.6 µM (inactive)
SNB-19
  GI50: 39.5 µM (inactive)
COLO 205
  GI50: 25.1 µM (inactive)
CCRF-CEM
  GI50: 14.7 µM (inactive)
MOLT-4
  GI50: 21.2 µM (inactive)
A498
  GI50: 24.4 µM (inactive)
SF-539
  GI50: 25.6 µM (inactive)
LXFL 529
  GI50: 16.5 µM (inactive)
HCT-116
  GI50: 18.3 µM (inactive)
XF498
  GI50: 20.6 µM (inactive)
SNB-78
  GI50: 45.9 µM (inactive)
HL-60
  GI50: 25.6 µM (inactive)
OVCAR-5
  GI50: 35.5 µM (inactive)
SK-MEL-28
  GI50: 34 µM (inactive)
DMS-114
  GI50: 22.6 µM (inactive)
U-251
  GI50: 19.8 µM (inactive)
K562
  GI50: 26.1 µM (inactive)
SNB-75
  GI50: 40.7 µM (inactive)
SN12C
  GI50: 35.1 µM (inactive)
LOX IMVI
  GI50: 14.9 µM (inactive)
